According to paper PMC6054532, “Dynamics of human protein kinase Aurora A linked to drug selectivity” (eLife, 2018):

Legend:
[1] = target: T1, Biotinylated T288V Aurora A (Homo sapiens, UniProt O14965, T288V); assay: Creoptix WAVE waveguide interferometry (double jump, slow-off, macroscopic KD); assay type: binding; conditions: 25°C; complex formed after 1 hour of incubation
T1 construct: made in house
T1 sequence (O14965 122-403 T288V): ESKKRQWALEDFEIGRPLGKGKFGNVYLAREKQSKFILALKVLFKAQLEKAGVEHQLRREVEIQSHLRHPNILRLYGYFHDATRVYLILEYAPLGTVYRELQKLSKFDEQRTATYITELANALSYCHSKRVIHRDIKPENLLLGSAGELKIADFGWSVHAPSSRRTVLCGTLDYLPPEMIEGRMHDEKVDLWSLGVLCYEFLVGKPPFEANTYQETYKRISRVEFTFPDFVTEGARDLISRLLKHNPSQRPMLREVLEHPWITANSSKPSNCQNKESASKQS
Experimental: All chemicals were purchased from GE Healthcare, unless otherwise stated. The protocols in the WAVE control software for conditioning of the chip, immobilization of proteins and performing kinetics experiments were followed. In short, the polycarboxylate chip (PCH) was activated by injection of a 1:1 mixture with final concentrations of 200 mM N-ethyl-N’-(3-dimethylaminopropyl)carbodiimide (EDC) and 50 mM N-hydroxysuccinimide (NHS), followed by streptavidin immobilization (50 μg/mL in 10 mM sodium acetate pH 5.0). Unreacted sites on the chip were blocked with 1 M ethanolamine pH 8.0. For all activation, immobilization and passivation steps 0.2x HBS-EP was used as running buffer with a flowrate of 10 μL/min and an injection duration of 420 s on both channels 1 and 2.
All experiments were run in 50 mM HEPES, 50 mM NaCl, 20 mM MgCl2, 5 mM TCEP, 0.03 mg/mL BSA, 0.005% Tween-20, pH 7.30 as running buffer.

Aurora B = conditions: ref Howard et al., 2009; cited from earlier work
Aurora C = tested on: Aurora C; parameters: method as in Carpinelli et al., 2007; Fraedrich et al., 2012; conditions: ref Carpinelli et al., 2007; Fraedrich et al., 2012; cited from earlier work
[2] = target: T2, dephosphorylated Aurora A (Homo sapiens, UniProt O14965); assay: Stopped-flow intrinsic tryptophan fluorescence drug binding kinetics
T2 construct: made in house; host or cells: E. coli BL21(DE3)
T2 sequence (O14965 122-403): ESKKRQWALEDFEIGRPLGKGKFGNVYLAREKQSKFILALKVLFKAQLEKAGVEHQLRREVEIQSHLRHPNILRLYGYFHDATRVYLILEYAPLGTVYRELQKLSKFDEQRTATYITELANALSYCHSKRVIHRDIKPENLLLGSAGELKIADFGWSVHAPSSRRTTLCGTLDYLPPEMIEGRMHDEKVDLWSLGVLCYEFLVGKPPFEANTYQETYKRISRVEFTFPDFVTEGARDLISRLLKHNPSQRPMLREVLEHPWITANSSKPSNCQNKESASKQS
Experimental: (§1) The rapid kinetics were studied using a stopped-flow spectrophotometer (SX20 series from Applied Photophysics Ltd). The flow system was made anaerobic by rinsing with degassed buffer comprised of 50 mM HEPES, 50 mM NaCl, 20 mM MgCl2, 5 mM TCEP, 5% DMSO, pH 7.30 to minimize photobleaching. The stock solutions of Aurora A and all drugs were made anaerobic by degassing with ThermoVac (MicroCal) at the desired temperature. In general, a solution of 5 μM Aurora A was loaded in one syringe and quickly mixed with drug, prepared in the same buffer, in the other syringe (mixing ratio 1:10). […] For each drug concentration, at least five replicate measurements were made and these transients were averaged. Analysis was performed by fitting the individual trace to exponential equations using Pro-Data Viewer (Applied Photophysics Ltd) or with Kinesyst 3 software (TgK Scientific) and error bars denote the standard errors as obtained from the fit. KaleidaGraph version 4.5.3 (Synergy) was used for data analysis and plotting.
The approximate values of k1 and k−1 obtained from fitting to this equation are used as starting values for the global fit.

Aurora A [3] = target: T3, Aurora A (Homo sapiens, UniProt O14965); assay: Global fit of binding and dissociation kinetics (KinTek Explorer) and constants calculated from microscopic rate constants; conditions: for weakening of overall affinity by the DFG-in and -out equilibrium: DFG-out binders
T3 construct: made in house; host or cells: E. coli BL21(DE3)
T3 sequence (O14965 122-403): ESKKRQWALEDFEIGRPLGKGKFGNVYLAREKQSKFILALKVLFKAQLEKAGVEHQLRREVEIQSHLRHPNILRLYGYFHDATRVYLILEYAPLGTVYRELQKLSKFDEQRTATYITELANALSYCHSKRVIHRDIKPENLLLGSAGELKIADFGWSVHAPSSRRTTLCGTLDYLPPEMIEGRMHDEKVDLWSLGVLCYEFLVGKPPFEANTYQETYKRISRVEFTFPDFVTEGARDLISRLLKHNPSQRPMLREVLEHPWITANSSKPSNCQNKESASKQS
Experimental: as §1

Aurora A [4] = target: T3, Aurora A; assay: mant-ATP binding kinetics by stopped-flow FRET from Trp, with global fit; conditions: 10°C
Experimental: Inhibitor binding followed by an induced-fit step:(3) Eout+ I⇌koffkonEout⋅I⇌k−3k3Eout∗⋅I K2K3KD=K2∗K3/(K3+1)
FRET using intrinsic tryptophan fluorescence is used to monitor mant-ATP (obtained from Jena Bioscience) binding kinetics to Aurora A at 10°C. In the binding experiment or kon , increasing concentration of mant-ATP were quickly mixed to 0.5 µM Aurora A (ratio 1:10, excitation at 295 nm, emission cut-off at 395 nm). In the experiment to measure the release of mant-ATP or koff , 10 µM/10 µM Aurora A/mant-ATP complex was diluted with buffer (ratio 1:10). A significant decrease in the fluorescence intensity of Aurora A (excitation at 295 nm, emission cut-off at 395 nm) can be seen due to the mant-ATP release.

[5] = target: the molecule itself; assay: crystal structure; co-crystallised: 240 μM deP Aurora A 122-403 + 1.0 mM AT9283 + 250 μM Mb; sitting drop, 18°C, 0.1 M Bis-Tris pH 5.5, 0.2 M magnesium chloride, 19% (w/v) PEG-3350

## O=C(Nc1c[nH]nc1-c1nc2ccc(CN3CCOCC3)cc2[nH]1)NC1CC1 [AT9283]
[1]
  slow dissociation, double exponential, fast phase (kobs1 slow-off): (1.1 ± 0.02) × 10^−2 s^−1
  slow dissociation, double exponential, slow phase (kobs2 slow-off): (0.1 ± 0.01) × 10^−2 s^−1
Aurora B
  IC50: 3 nM

## CO[C@@H](C(=O)N1Cc2n[nH]c(NC(=O)c3ccc(N4CCN(C)CC4)cc3)c2C1)c1ccccc1 [Danusertib]
Aurora C
  IC50: 61 nM
[2]; 25°C
  k-2 (intercept of kobs,Binding plot): 4.6 ± 3 s⁻¹
  kobs of slow phase, plateau (induced-fit step, k3+k-3): approximately 16 ± 2 s^−1
Aurora A [3]
  weakening of overall affinity by the DFG-in and -out equilibrium: 1.6 fold
Aurora A [3]; induced-fit step
  tighter binding resulting from the conformational change after drug binding: four orders of magnitude

## Cc1ccc(NC(=O)c2ccc(CN3CCN(C)CC3)cc2)cc1Nc1nccc(-c2cccnc2)n1 [Gleevec]
[2]; 10°C
  k2, bimolecular rate constant (slope of kobs,Binding vs concentration, fast phase): 1.1e+06 ± 300000 M⁻¹ s⁻¹
  k-2, dissociation from intercept of binding plot (kdiss): 31 ± 2 s⁻¹
Aurora A [3]
  weakening of overall affinity by the DFG-in and -out equilibrium: 1.6 fold

## mant-ATP
Aurora A [4]
  k2 (plot of kobs vs concentration, fast phase): 800000 ± 200000 M⁻¹ s⁻¹
  k-2 (plot of kobs vs concentration, fast phase): 50 ± 8 s⁻¹
  kobs of slow phase, plateau (k3+k-3): around 21 ± 1 s^−1

B1: dephosphorylated Aurora A (122-403) (domain or fragment, human, UniProt O14965 122-403, looked up)
chain: ESKKRQWALEDFEIGRPLGKGKFGNVYLAREKQSKFILALKVLFKAQLEKAGVEHQLRREVEIQSHLRHPNILRLYGYFHDATRVYLILEYAPLGTVYRELQKLSKFDEQRTATYITELANALSYCHSKRVIHRDIKPENLLLGSAGELKIADFGWSVHAPSSRRTTLCGTLDYLPPEMIEGRMHDEKVDLWSLGVLCYEFLVGKPPFEANTYQETYKRISRVEFTFPDFVTEGARDLISRLLKHNPSQRPMLREVLEHPWITANSSKPSNCQNKESASKQS
notes: human Ser/Thr kinase Aurora A, residues 122-403, dephosphorylated (confirmed by mass spectrometry); E. coli BL21(DE3) is named only for the isotope-labelled samples; also called deP Aurora A^122-403; AurA; source: expressed and purified as described before (Zorba et al., 2014)
[5]
  binding result: binds
